# Laboratory results as given in patent US7611863B2, “Selective staining of biomembranes using voltage-sensitive dyes” (Max-Planck-Gesellschaft zur Foerderung der Wissenschaften …, priority 2004, dated 2009).
# What was measured:
# human erythrocytes = assay: Enzyme induced staining of red blood cells; assay type: cell-based; conditions: 9.8 μM, PLAP added
# Description: Enzyme induced staining of red blood cells. Human erythrocytes were prepared according to a slightly modified standard procedure^29. 4 ml of blood of MJH were sucked into a tube coated with EDTA (Vacutainer 367,861, Becton Dickinson, Meylan, France) and centrifuged for 10 min at 1600 g. The pellet (˜1 ml) was washed three times by resuspension and centrifugation for 10 min at 1600 g using 15 ml of a 300 mOsm Tris buffer (50 mM Tris, 110 mM NaCl, pH 7.4). Finally, the pellet was diluted with an equal volume of the same buffer additionally containing 1 mM CaCl2.
# The staining experiments with erythrocytes were similar to those with giant vesicles. […]
# Di-4-ASPP phosphate was added to human erythrocytes attached to a culture dish to a concentration of 9.8 μM. Membrane fluorescence was measured in the same setup as with giant vesicles. Fluorescence was weaker than with giant vesicles, which we attribute to fluorescence quenching by hemoglobin and the smaller size of the erythrocytes. […]
# Plots of the intensity of a row of pixels cutting through the image of an erythrocyte at its maximum diameter are shown in B. The normalized maximum brightness minus the background signal versus time is shown in C. The ratio of final and initial fluorescence was F∞/F0=11-25 with an average of 15. These values are similar to the fluorescence enhancement on giant vesicles. […]
# [1] = Enzyme induced staining of liposomes; assay type: biochemical; conditions: 100 μM lipid; 0.43 μM and 4.31 μM substrate
# Description: Enzyme induced staining of liposomes. We studied enzymatic hydrolysis of Di-4-ASPP phosphate in the presence of large unilamellar POPC vesicles (LUVs) to observe enzyme induced staining. Tris-NaCl Buffer was used for the preparation of all solutions. To 550 μl of a 200 μM solution of POPC vesicles in a cuvette, an equal volume of Di-4-ASPP phosphate was added to yield concentrations between 0.1 μM and 10.7 μM. 10 μl of PLAP (18.6 DEA Units/ml) were added and the suspension was mixed by pipetting. The cuvette was held at 25° C. Fluorescence (excitation 488 nm, emission 600 nm) was recorded before and after addition of the enzyme with a resolution of 1 sec. Initial velocities were determined from the slope of the first 10 to 20 seconds of the fluorescence traces.
# Enzyme Induced staining of liposomes. Now, we combined the two previous experiments. The dye phosphate was hydrolysed by phosphatase in the presence of lipid vesicles. The reaction was observed by the enhancement of fluorescence due to the enhanced binding of the dye alcohol to the lipid. The fluorescence intensity of a vesicle suspension (100 μM lipid) was recorded before and after the addition of the phosphatase with 0.43 μM and 4.31 μM Di-4-ASPP phosphate. […] This corresponds to the ratio of the fluorescence lipid titration data of alcohol and phosphate at 100 μM lipid.
# [2] = biological target: alkaline phosphatase from the human placenta (PLAP) (Homo sapiens, UniProt P05187); assay: Enzymatic dye hydrolysis (HPLC, isothermal titration calorimetry); assay type: biochemical
# Chain of alkaline phosphatase from the human placenta (PLAP) (P05187 23-506): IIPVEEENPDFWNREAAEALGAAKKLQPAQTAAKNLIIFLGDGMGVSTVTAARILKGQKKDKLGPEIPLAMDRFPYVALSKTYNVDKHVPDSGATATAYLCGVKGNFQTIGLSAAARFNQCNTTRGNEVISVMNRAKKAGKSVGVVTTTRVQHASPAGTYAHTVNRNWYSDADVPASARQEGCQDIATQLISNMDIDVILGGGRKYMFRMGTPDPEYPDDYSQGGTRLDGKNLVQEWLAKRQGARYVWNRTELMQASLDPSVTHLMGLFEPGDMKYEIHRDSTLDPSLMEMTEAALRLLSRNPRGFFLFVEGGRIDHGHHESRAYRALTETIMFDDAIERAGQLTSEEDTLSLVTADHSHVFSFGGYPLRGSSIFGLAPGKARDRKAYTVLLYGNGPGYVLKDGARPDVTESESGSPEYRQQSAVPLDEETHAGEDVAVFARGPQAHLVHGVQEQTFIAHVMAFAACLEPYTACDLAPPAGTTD
# Description: Enzyme kinetics with ITC. We performed enzyme kinetic measurements with Di-4-ASPP phosphate as a substrate of PLAP by isothermal titration calorimetry (ITC). We used Tris-NaCl buffer (20 mM Tris, 100 mM NaCl, pH 8.1) without Zn^2+ and Mg^2+ although most alkaline phosphatases depend on these metals for maximum activity. However, divalent cations bind to lipid membranes and induce their aggregation and fusion^25. The pH-value is a compromise between optimal enzymatic activity (at pH 9.8) and compatibility with vesicles and cells. The microcalorimeter (VP-ITC, Microcal, Northampton, Mass., USA) was thermostatted to 25.0° C., with reference power set to 10 μcal/sec and a stirring speed of 310 rpm. The sample cell contained a PLAP solution of 0.19 DEA Units/ml activity and the syringe was filled with a 1 mM solution of Di-4-ASPP phosphate. The reference cell contained buffer only. Different amounts of dye were injected into the sample cell in separate experiments to cover a concentration range from 2 μM to 15 μM. To determine the heats of dilution alone, injections were carried out with pure buffer. For both hydrolysis and dilution, the baseline signal was approximated by linear or polynomial functions and subtracted from the raw signal resulting in a curve with a flat baseline. The dilution signal was subtracted from the signal of the enzymatic reaction to yield the final calorimeter tracing of enzymatic hydrolysis. The molar heat of reaction was obtained by integration. The initial velocities were determined from the average heat of reaction of the first 10 to 30 seconds after the onset of the reaction, using the mean molar heat of reaction as a proportionality constant. […]
# Enzymatic dye hydrolysis. […] We evaluated the heat production per unit time that is proportional to the reaction rate, with the molar heat of reaction being the constant of proportionality^38. […] By calibration with that energy, the initial reaction velocity was evaluated.
structure (smiles),measurement,setting,value
CCCCN(CCCC)c1ccc(/C=C/c2cc[n+](CCCOP(=O)([O-])O)cc2)cc1 [Di-4-ASPP phosphate],"ratio of final and initial fluorescence F∞/F0, average",human erythrocytes,15
same,"ratio of final and initial fluorescence F∞/F0, range",human erythrocytes,11-25
same,enhancement of fluorescence intensity of vesicle suspension after addition of phosphatase,[1],about sixfold
same,acceptance as substrate by PLAP,[2]; ITC kinetics,accepted by PLAP as a regular substrate
same,molar heat of hydrolysis (endothermal),"[2]; ITC, 25.0° C., Tris-NaCl pH 8.1",0.263 ± 0.048 kcal/mol
same,conversion by soluble PLAP (HPLC analysis),"[2]; after incubation, enzyme removed by ultrafiltration",quantitatively converted to Di-4-ASPP alcohol
